We go through one compound from patent US20230181678A1, “NOVEL ANTIBACTERIAL PEPTIDE OR PEPTIDE ANALOG AND USE THEREOF” (CAMP THERAPEUTICS INC., priority 2020, published 2023).

Type in all cases: cell-based
The test system of data set [1] is human red blood cells (hRBC). The data set can be described thus: Hemolysis assay. The conditions noted are these: hRBCs, 37° C., 4 hours. The method, then: To identify toxicity of the peptides, human red blood cell (hRBC) hemolytic activity assay (hemolysis assay) was performed.
Specifically, percent hemolysis of human red blood cells (hRBC) was determined by comparing the cells incubated in 100% deionized water (DW) as a positive control and peptide-free PBS as a negative control. hRBCs were washed 3 times with PBS using centrifugation at 500 g for 5 min, and 5% (v/v) hematocrit was suspended in PBS buffer (Hyclone). The peptide was diluted using 2-fold serial dilution with PBS, and hRBCs were added at 2.5×10^8 cells to each well. The sample was incubated at 37° C. for 4 hours. After centrifugation at 1400 rpm for 5 minutes, 180 μL of the supernatant was transferred to a transparent flat-bottom 96-well plate. An amount of hemoglobin released by the peptide was determined by measuring absorbance at 405 nm using an EPOCH2 microplate reader (BioTek, Winooski, USA).
Hemolytic activity (%)=(absorbance of sample−absorbance of PBS)/(absorbance of 100% DW−A405 of PBS)×100

Data set [2] deals with inner membrane of E. coli ATCC 25922. Nature of the data set: Enzyme assay, inner membrane leakage (β-galactosidase release, ONPG). As to conditions: 1.5 mM ONPG. As for the experimental part:
(§1) It was observed, through an enzyme assay, whether the sensitizing peptide destroyed the outer and inner membranes of Gram-negative bacteria. In the presence of the sensitizing peptide, it was observed whether in a case where 1.5 mM ONPG was used together therewith, β-galactosidase was released from E. coli ATCC 25922 for the inner membrane, and whether in a case where 200 μM CENTA was used together therewith, β-lactamase was released from E. coli NDM-1 for the outer membrane.
To determine leakage of the inner membrane, release of the cytoplasmic enzyme β-galactosidase was evaluated. The bacteria were diluted to OD600=1 and 1.5 mM ONPG (O-nitrophenyl-β-D-galactopyranoside) was added. Absorbance of a product of enzyme reaction was measured at 420 nm. The other procedures were carried out in the same manner as in the experiment for outer membrane destruction.

In data set [3] the test system is outer membrane of E. coli NDM-1. The data set can be described thus: Enzyme assay, outer membrane leakage (β-lactamase release, CENTA). As to conditions: peptide 0.63 or 1.30 uM, 37° C., 1 h; 200 μM CENTA. As for the experimental part:
as §1
Specifically, to determine leakage of the outer membrane, activity of the β-lactamase released from the outer membrane was evaluated. New Delhi metallo-β-lactamase-1 (NDm-1)-producing E. coli cells were washed three times with DPBS and suspended in the same buffer. The cells were diluted to an OD600 of 0.2 and treated with the peptide at a concentration of 0.63 or 1.30 uM at 37° C. for 1 h. After centrifugation, the supernatant was incubated with 200 μM CENTATM β-lactamase substrate at 37° C. for 1 hour. An optical density was obtained by measuring absorbance of a product of enzyme reaction at 405 nm using a microplate reader (Molecular Devices Co., Menlo Park, Calif.).
The results are illustrated in FIGS. 12A and 12B. The y-axis is absorbance measured at 405 nm, and higher absorbance is observed as a higher amount of β-lactamase is released due to destruction of the membrane.

`CC[C@H](C)[C@H](NC(=O)CN)C(=O)NCC(=O)N[C@@H](C)C(=O)N[C@H](C(=O)N[C@@H](CC(C)C)C(=O)N[C@@H](CCCCN)C(=O)N[C@H](C(=O)N[C@@H](CC(C)C)C(=O)N[C@H](C(=O)N[C@H](C(=O)NCC(=O)N[C@@H](CC(C)C)C(=O)N1CCC[C@H]1C(=O)N[C@@H](C)C(=O)N[C@@H](CC(C)C)C(=O)N[C@H](C(=O)N[C@@H](CO)C(=O)N[C@@H](Cc1c[nH]c2ccccc12)C(=O)N[C@H](C(=O)N[C@@H](CCCCN)C(=O)N[C@@H](CCCNC(=N)N)C(=O)N[C@@H](CCCCN)C(=O)N[C@@H](CCCNC(=N)N)C(=O)N[C@@H](CCC(N)=O)C(=O)N[C@@H](CCC(N)=O)C(N)=O)[C@@H](C)CC)[C@@H](C)CC)[C@@H](C)O)[C@@H](C)O)C(C)C)C(C)C` [melittin, reference compound]: the hemolytic activity result in data set [1] was “exhibited hemolysis of hRBCs starting from low concentrations”. Further, in data set [2], the “destruction of inner membrane (β-galactosidase release)” value is “destroyed both the inner and outer membranes of bacteria”. In addition, the “destruction of outer membrane (β-lactamase release)” value in data set [3] is “destroyed both the inner and outer membranes of bacteria”.
